pEC50: −log10 of the molar value.
What was measured:
Assay type in all cases: cell-based, human
LCL cells = experiment: Cell proliferation (Cell Titer-Blue Assay); conditions: for pEC50: Homo sapiens
Text: (§1) Human chronic myelogenous leukemia K562 cells (ATCC No. CCL-243), human large B-lymphocyte non-Hodgkin's lymphoma LCL cells, human leukemic monocyte lymphoma U937 cells (ATCC No. CRL-1593.2), human prostate adenocarcinoma PC3 (ATCC No. CRL-1435) and human gastric carcinoma SNU-16 cells (ATCC No. CRL-5974) were maintained in complete-[…] Park Memorial Institute (RPMI) 1640 medium supplemented with 20 mmol/L HEPES (pH 7.4; GIBCO-Invitrogen, Carlsbad, Calif., USA), 10% (v/v) fetal bovine serum (FBS), 2 mmol/L L-glutamine (GIBCO-Invitrogen), and 80 units gentamicin (GIBCO-Invitrogen). Cells were cultured in suspension in a humidified atmosphere of 5% (v/v) CO2 at 37° C. and were maintained in exponential growth phase. For maintenance, cells were passaged twice per week and seeded at ratios 1:10. Cell proliferation was determined using the Cell Titer-Blue Assay kit (Promega, Madison, Wis., USA). Cells were seeded at 10,000 cells per well in black flat bottom 96-well plates (Nalge Nunc, Penfield, N.Y., USA) and treated with serial doses of hydroxytyrosol (0-3200 μM) and oleuropein (0-12800 μM) for 24, 48 and 120 hours at 37° C., 5% (v/v) CO2. Following incubation with the test samples, Cell-Titer Blue reagent (20 μl per 100 μL) was added to each well and mixed gently for 5 sec prior to 4 hr incubation at 37° C. in a humidified atmosphere of 5% CO2. Fluorescence intensity (λex=550 nm and λem=615 nm) was determined using a Perkin Elmer Victor3 multilabel microplate counter (PerkinElmer, Waltham, Mass., USA). Data were expressed as % relative cell viability compared to untreated cells after correction of subtracting the media control fluorescence reading.

K562 cells [1] = experiment: Cell proliferation (Cell Titer-Blue Assay); conditions: for pEC50: Homo sapiens
Text: as §1

PC3 cells = experiment: Cell proliferation (Cell Titer-Blue Assay); conditions: for pEC50: Homo sapiens, PC-3
Text: as §1

U937 cells = experiment: Cell proliferation (Cell Titer-Blue Assay); conditions: for pEC50: Homo sapiens, U-937
Text: as §1

PBMC = experiment: Cell proliferation (Cell Titer-Blue Assay); conditions: for pEC50: Homo sapiens, 24 hr; for cell proliferation of PBMC: 120 hours incubation
Method: Human peripheral blood mononuclear cells (PBMCs) were fractionated using the Ficoll Plaque fractionation method from whole blood obtained from the Australian Red Cross Blood Bank (ARCB) under ethic approval (#304/12). Cells were harvested fresh on the day of the experiments and maintained in complete-RPMI-1640 medium supplemented with 10% FBS, 2 mM L-glutamine and 20 μg/mL gentamicin at 37° C., 5% (v/v) CO2. Cell proliferation was determined using the Cell Titer-Blue Assay kit (Promega, Madison, Wis., USA). Cells were seeded at 10,000 cells per well in black flat bottom 96-well plates (Nalge Nunc, Penfield, N.Y., USA) and treated with serial doses of hydroxytyrosol (0-3200 μM) and oleuropein (0-12800 μM) for 24, 48 and 120 hours at 37° C., 5% (v/v) CO2. Following incubation with the test samples, Cell-Titer Blue reagent (20 μl per 100 μL) was added to each well and mixed gently for 5 sec prior to 4 hr incubation at 37° C. in a humidified atmosphere of 5% CO2. Fluorescence intensity (λex=550 nm and λem=615 nm) was determined using a Perkin Elmer Victor3 multilabel microplate counter (PerkinElmer, Waltham, Mass., USA). Data were expressed as % relative cell viability compared to untreated cells after correction of subtracting the media control fluorescence reading.

K562 cells [2] = experiment: Cell viability (Cell-Titer Blue), K562
Method: Cells were seeded at densities of 7,500 cells/in black flat bottom 96-well plates (Nalge Nunc, Penfield, N.Y., USA) and treated with a dose response of hydroxytyrosol (0-200 μM), oleuropein (0-800 μM), tyrosol (0-1000 μM) and homovanilic acid (0-1000 μM) for 24 hours at 37° C., 5% (v/v) CO2. Cell viability was determined after 24 hour exposure to hydroxytyrosol and measured using the Cell-Titer Blue® Assay kit (Promega, Madison, Wis., USA) according to the manufacturer's instructions. Cell-Titer Blue reagent was added to each well and incubated for 4 hours at 37° C., 5% CO2, before reading fluorescence intensity (550 nm excitation; 615 nm emission) using the Perkin Elmer Victor3 (Perkin Elmer, MA, USA) multi-label plate reader. Alternatively Cells were seeded at densities of 7,500 cells/in black flat bottom 96-well plates (Nalge Nunc, Penfield, N.Y., USA) and treated with 100 μM hydroxytyrosol for 24 hours at 37° C., 5% (v/v) CO2. […] Fluorescence intensity (λex=550 nm and λem=615 nm) was determined using a Perkin Elmer Victor3 multilabel microplate counter (PerkinElmer, Waltham, Mass., USA). Data were expressed as % relative cell viability compared to untreated cells after correction of subtracting the media control fluorescence reading.

pEC50 (K562 cells [1]; K562, 24 hr) | pEC50 (K562 cells [1]; K562, 48 hr) | pEC50 (K562 cells [1]; K562, 120 hr) | pEC50 (PC3 cells; PC3, 24 hr) | pEC50 (PC3 cells; PC3, 48 hr) | pEC50 (PC3 cells; PC3, 120 hr) | pEC50 (U937 cells; U937, 24 hr) | pEC50 (U937 cells; U937, 48 hr) | pEC50 (U937 cells; U937, 120 hr) | Structure (SMILES) | EC10 (concentration required to reduce the cell viability of the population to 10%) (LCL cells; 120 hr) | pEC50 (LCL cells; 24 hr) | pEC50 (LCL cells; 48 hr) | pEC50 (LCL cells; 120 hr) | EC10 (concentration required to reduce the cell viability of the population to 10%) (K562 cells [1]; K562, 120 hr) | EC10 (concentration required to reduce the cell viability of the population to 10%) (PC3 cells; PC3, 120 hr) | EC10 (concentration required to reduce the cell viability of the population to 10%) (U937 cells; U937, 120 hr) | pEC50 (PBMC) | further results
3.47 | 3.02 | 3.23 | 2.64 | 2.42 | 2.60 | 3.14 | 2.55 | 2.90 | C/C=C1/[C@H](O[C@@H]2O[C@H](CO)[C@@H](O)[C@H](O)[C@H]2O)OC=C(C(=O)OC)[C@H]1CC(=O)OCCc1ccc(O)c(O)c1 [OL, oleuropein] | 1240 µM | 3.39 | 2.96 | 3.19 | 756 µM | 4600 µM | 2600 µM | 2.57 | –
3.82 | 3.82 | 4.04 | 2.67 | 3.49 | 3.67 | 3.25 | 3.30 | 3.60 | OCCc1ccc(O)c(O)c1 [HT, 4-(2-hydroxyethyl)-1,2-benzenediol] | 177 µM | 3.43 | 3.70 | 4.03 | 176 µM | 630 µM | 370 µM | 3.07 | cell viability of K562 cells (K562 cells [2]; 20 or 100 μM, 24 hours): significantly reduced in a dose dependent manner; effect on the cytotoxicity of doxorubicin (K562 cells [2]; K562, hydroxytyrosol pre-treatment 24 hours, then doxorubicin): enhances the cytotoxicity of doxorubicin; cell proliferation of PBMC (PBMC): increases the proliferation; cell proliferation of PBMC (PBMC; listed as hydroxytyrosol): attenuated
